# Laboratory results taken from US9073821B2, “Hydroxamic acid derivative” (priority 2010, dated 2015).
# Molecular target: Pseudomonas aeruginosa LpxC enzyme (Pseudomonas aeruginosa (strain ATCC 15692 / DSM 22644 / CIP 104116 / JCM 14847 / LMG 12228 / 1C / PRS 101 / PAO1), UniProt P47205)
# Experiment: biochemical
# Type: biochemical
# Details: inhibitory activity on Pseudomonas aeruginosa LpxC enzyme, class symbols A/B/C; read-out: Enzyme inhibitory activity
# Method: Test 1: Evaluation of the Inhibitory Activity on Pseudomonas aeruginosa LpxC Enzyme
# An inhibition curve was constructed for each test compound by performing the aforementioned reaction at varying concentrations of the test compound. From this inhibition curve, the concentration of the test compound at which the formation of the reaction product was suppressed by 50% was determined as the IC50 of the test compound, which was an index for the inhibitory activity on Pseudomonas aeruginosa LpxC enzyme.
row,IC50 [µM],SMILES
1,< 0.01,"CNC(=O)C(C(=O)NO)N(C)C(=O)c1ccc(-c2ccc(NCCOC)c(F)c2)cc1 (centres unmarked) [Compound 66, 2-[({3′-fluoro-4′-[(2-methoxyethyl)amino]biphenyl-4-yl}carbonyl)(methyl)amino]-N-hydroxy-N′-methylpropanediamide]"
2,< 0.01,"CNC(=O)C(C(=O)NO)N(C)C(=O)c1ccc(-c2cc(F)c(NC)cc2F)cc1 (centres unmarked) [Compound 67, 2-[{[2′,5′-difluoro-4′-(methylamino)biphenyl-4-yl]carbonyl}(methyl)amino]-N-hydroxy-N′-methylpropanediamide]"
3,< 0.01,"CNC(=O)C(C(=O)NO)N(C)C(=O)c1ccc(-c2ccc(NC)c(C(F)(F)F)c2)cc1 (centres unmarked) [Compound 68, N-hydroxy-N′-methyl-2-(methyl{[4′-(methylamino)-3′-(trifluoromethyl)biphenyl-4-yl]carbonyl}amino)propanediamide]"
4,< 0.01,"CNC(=O)C(C(=O)NO)N(C)C(=O)c1ccc(-c2cc(F)c(NC)c(F)c2)cc1 (centres unmarked) [Compound 69, 2-[{[3′,5′-difluoro-4′-(methylamino)biphenyl-4-yl]carbonyl}(methyl)amino]-N-hydroxy-N′-methylpropanediamide]"
5,< 0.01,"CNC(=O)C(C(=O)NO)N(C)C(=O)c1ccc(-c2ccc(OCCCN(C)Cc3ccccc3)cc2)cc1 (centres unmarked) [Compound 70, 2-{[(4′-{3-[benzyl(methyl)amino]propoxy}biphenyl-4-yl)carbonyl](methyl)amino}-N-hydroxy-N′-methylpropanediamide]"
6,< 0.01,"CNC(=O)C(C(=O)NO)N(C)C(=O)c1ccc(-c2ccc(OCCCN3CCOC3=O)cc2)cc1 (centres unmarked) [Compound 71, N-hydroxy-N′-methyl-2-[methyl({4′-[3-(2-oxo-1,3-oxazolidin-3-yl)propoxy]biphenyl-4-yl}carbonyl)amino]propanediamide]"
7,< 0.01,"CNC(=O)C(C(=O)NO)N(C)C(=O)c1ccc(-c2c(F)c(F)c(NC)c(F)c2F)cc1 (centres unmarked) [Compound 72, N-hydroxy-N′-methyl-2-(methyl {[2′,3′,5′,6′-tetrafluoro-4′-(methylamino)biphenyl-4-yl]carbonyl}amino)propanediamide]"
8,< 0.01,"CNC(=O)C(C(=O)NO)N(C)C(=O)c1ccc(-c2ccccc2F)c(F)c1 (centres unmarked) [Compound 73, 2-{[(2,2′-difluorobiphenyl-4-yl)carbonyl](methyl)amino}-N-hydroxy-N′-methylpropanediamide]"
9,> 0.1,"CNC(=O)C(C(=O)NO)N(C)C(=O)c1ccc(-c2ccc(CNCC(C)(C)C)cc2)cc1 (centres unmarked) [Compound 74, 2-{[(4′-{[(2,2-dimethylpropyl)amino]methyl}biphenyl-4-yl)carbonyl](methyl)amino}-N-hydroxy-N′-methylpropanediamide]"
10,< 0.01,"CNC(=O)C(C(=O)NO)N(C)C(=O)c1ccc(-c2ccc(OCCCNc3ccccc3)cc2)cc1 (centres unmarked) [Compound 75, N-hydroxy-N′-methyl-2-[methyl({4′-[3-(phenylamino)propoxy]biphenyl-4-yl}carbonyl)amino]propanediamide]"
11,> 0.1,"CN(C(=O)c1ccc(-c2ccccc2)cc1)C(C(=O)NO)C(=O)NCCc1ccccc1 (centres unmarked) [Compound 76, 2-[(biphenyl-4-ylcarbonyl)(methyl)amino]-N-hydroxy-N′-(2-phenylethyl)propanediamide]"
12,0.01 to 0.1,"CCCS(=O)(=O)Nc1ccc(-c2ccc(C(=O)N(C)C(C(=O)NC)C(=O)NO)cc2)cc1 (centres unmarked) [Compound 78, N-hydroxy-N′-methyl-2-[methyl({4′-[(propylsulfonyl)amino]biphenyl-4-yl}carbonyl)amino]propanediamide]"
13,< 0.01,"CNC(=O)C(C(=O)NO)N(C)C(=O)c1ccc(-c2ccc(NCC3CC3)cc2)cc1 (centres unmarked) [Compound 79, 2-[({4′-[(cyclopropylmethyl)amino]biphenyl-4-yl}carbonyl)(methyl)amino]-N-hydroxy-N′-methylpropanediamide]"
14,> 0.1,"CN(C)C(=O)C(C(=O)NO)N(C)C(=O)c1ccc(-c2ccccc2)cc1 (centres unmarked) [Compound 80, 2-[(biphenyl-4-ylcarbonyl)(methyl)amino]-N′-hydroxy-N,N-dimethylpropanediamide]"
15,< 0.01,"CNC(=O)C(C(=O)NO)N(C)C(=O)c1ccc(-c2ccc3c(c2)OCCO3)cc1 (centres unmarked) [Compound 81, 2-{[4-(2,3-dihydro-1,4-benzodioxin-6-yl)benzoyl](methyl)amino}-N-hydroxy-N′-methylpropanediamide]"
16,< 0.01,"CNC(=O)C(C(=O)NO)N(C)C(=O)c1ccc(-c2ccc3c(c2)N(C)C(=O)CO3)cc1 (centres unmarked) [Compound 82, N-hydroxy-N′-methyl-2-{methyl[4-(4-methyl-3-oxo-3,4-dihydro-2H-1,4-benzoxazin-6-yl)benzoyl]amino}propanediamide]"

row,IC50 [µM],SMILES
1,< 0.01,"CNC(=O)C(C(=O)NO)N(C)C(=O)c1ccc(-c2ccc(OC(F)(F)C(F)F)cc2)cc1 (centres unmarked) [Compound 83, N-hydroxy-N′-methyl-2-(methyl {[4′-(1,1,2,2-tetrafluoroethoxy)biphenyl-4-yl]carbonyl}amino)propanediamide]"
2,< 0.01,"CNC(=O)C(C(=O)NO)N(C)C(=O)c1ccc(-c2ccc(OCCCN3CCN(c4ccccc4)CC3)cc2)cc1 (centres unmarked) [Compound 84, N-hydroxy-N′-methyl-2-[methyl({4′-[3-(4-phenylpiperazin-1-yl)propoxy]biphenyl-4-yl}carbonyl)amino]propanediamide]"
3,< 0.01,"CNC(=O)C(C(=O)NO)N(C)C(=O)c1ccc(-c2ccc(N(C)CC3CC3)cc2)cc1 (centres unmarked) [Compound 85, 2-[({4′-[(cyclopropylmethyl)(methyl)amino]biphenyl-4-yl}carbonyl)(methyl)amino]-N-hydroxy-N′-methylpropanediamide]"
4,0.01 to 0.1,"CNC(=O)C(C(=O)NO)N(C)C(=O)c1ccc(-c2ccc(NCCCN3CCOCC3)cc2)cc1 (centres unmarked) [Compound 86, N-hydroxy-N′-methyl-2-{methyl[(4′-{[3-(morpholin-4-yl)propyl]amino}biphenyl-4-yl)carbonyl]amino}propanediamide]"
5,< 0.01,"CNC(=O)C(C(=O)NO)N(C)C(=O)c1ccc(-c2ccc(OCc3cccc(CN4CCOCC4)c3)cc2)cc1 (centres unmarked) [Compound 87, N-hydroxy-N′-methyl-2-{methyl[(4′-{[3-(morpholin-4-ylmethyl)benzyl]oxy}biphenyl-4-yl)carbonyl]amino}propanediamide]"
6,< 0.01,"CNC(=O)C(C(=O)NO)N(C)C(=O)c1ccc(-c2ccc(OCCCN3CC(C)OC(C)C3)cc2)cc1 (centres unmarked) [Compound 88, 2-[({4′-[3-(2,6-dimethylmorpholin-4-yl)propoxy]biphenyl-4-yl}carbonyl)(methyl)amino]-N-hydroxy-N′-methylpropanediamide]"
7,< 0.01,"CNC(=O)C(C(=O)NO)N(C)C(=O)c1ccc(-c2ccc(OCCN(C)c3ccccc3)cc2)cc1 (centres unmarked) [Compound 89, N-hydroxy-N′-methyl-2-{methyl[(4′-{2-[methyl(phenyl)amino]ethoxy}biphenyl-4-yl)carbonyl]amino}propanediamide]"
8,< 0.01,"CNC(=O)C(C(=O)NO)N(C)C(=O)c1ccc(-c2ccc(OCc3ccc(N4CCN(C)CC4)cc3)cc2)cc1 (centres unmarked) [Compound 90, N-hydroxy-N′-methyl-2-{methyl[(4′-{[4-(4-methylpiperazin-1-yl)benzyl]oxy}biphenyl-4-yl)carbonyl]amino}propanediamide]"
9,< 0.01,"CNC(=O)C(C(=O)NO)N(C)C(=O)c1ccc(-c2ccc(OCc3ccc(CN4CCOCC4)cc3)cc2)cc1 (centres unmarked) [Compound 91, N-hydroxy-N′-methyl-2-{methyl[(4′-{[4-(morpholin-4-ylmethyl)benzyl]oxy}biphenyl-4-yl)carbonyl]amino}propanediamide]"
10,< 0.01,"CNC(=O)C(C(=O)NO)N(C)C(=O)c1ccc(-c2ccc(OCCCN(C)Cc3c(F)cccc3F)cc2)cc1 (centres unmarked) [Compound 92, 2-{[(4′-{3-[(2,6-difluorobenzyl)(methyl)amino]propoxy}biphenyl-4-yl)carbonyl](methyl)amino}-N-hydroxy-N′-methylpropanediamide]"
11,0.01 to 0.1,"CNC(=O)C(C(=O)NO)N(C)C(=O)c1ccc(-c2ccc(OCc3ccc(-c4nnn[nH]4)cc3)cc2)cc1 (centres unmarked) [Compound 93, N-hydroxy-N′-methyl-2-{methyl[(4′-{[4-(1H-tetrazol-5-yl)benzyl]oxy}biphenyl-4-yl)carbonyl]amino}propanediamide]"
12,< 0.01,"CNC(=O)C(C(=O)NO)N(C)C(=O)c1ccc(-c2ccc(OCC3(C)COC3)cc2)cc1 (centres unmarked) [Compound 95, N-hydroxy-N′-methyl-2-[methyl({4′-[(3-methyloxetan-3-yl)methoxy]biphenyl-4-yl}carbonyl)amino]propanediamide]"
13,< 0.01,"CNC(=O)C(C(=O)NO)N(C)C(=O)c1ccc(-c2ccc(OCCCn3ccnc3)cc2)cc1 (centres unmarked) [Compound 96, N-hydroxy-2-[({4′-[3-(1H-imidazol-1-yl)propoxy]biphenyl-4-yl}carbonyl)(methyl)amino]-N′-methylpropanediamide]"
14,0.01 to 0.1,"CNC(=O)C(C(=O)NO)N(C)C(=O)c1ccc(-c2ccc(NCCCN(C)Cc3ccccc3)cc2)cc1 (centres unmarked) [Compound 97, 2-[{[4′-({3-[benzyl(methyl)amino]propyl}amino)biphenyl-4-yl]carbonyl}(methyl)amino]-N-hydroxy-N′-methylpropanediamide]"
15,0.01 to 0.1,"CNC(=O)C(C(=O)NO)N(C)C(=O)c1ccc(-c2ccc(OCc3ccc(C(=O)O)cc3)cc2)cc1 (centres unmarked) [Compound 98, 4-{[(4′-{[1-(hydroxyamino)-3-(methylamino)-1,3-dioxopropan-2-yl](methyl)carbamoyl}biphenyl-4-yl)oxy]methyl}benzoate]"
16,< 0.01,"CNC(=O)C(C(=O)NO)N(C)C(=O)c1ccc(-c2ccc(OCc3coc(C)n3)cc2)cc1 (centres unmarked) [Compound 99, N-hydroxy-N′-methyl-2-[methyl({4′-[(2-methyl-1,3-oxazol-4-yl)methoxy]biphenyl-4-yl}carbonyl)amino]propanediamide]"
